Consider two compounds from patent US20040209799A1, “JAK/STAT pathway inhibitors and the uses thereof” (priority 2000, published 2004).

Some results are limits rather than exact numbers.

Common to all, as to format: biochemical
The target in experiment [1] is IGFR (Insulin-like growth factor receptor) protein tyrosine kinase (Homo sapiens, UniProt P08069). Kind of experiment: poly (Glu, Tyr) 4:1 ELISA, IGFR. The protocol: (§1) To further examine the inhibition characteristics of DBH (and its variants) to a variety of cellular components, a poly (Glu, Tyr) 4:1 ELISA was performed. Hymenialdisine (H), DBH (as marine sponge extracts: see Chipman and Faulkner, 1997), and three variant forms of synthetic DBH: the free base form of DBH (DBH-2FB), a trifluoroacetic acid salt form of DBH (DBH-2S), and a methanesulfonic acid salt form of DBH (DBH 1) were solubilized in DMSO, and tested for the ability to inhibit; ZAP-70 (ζ-associated polypeptide of 70 kDa) protein tyrosine kinase, BTK (Bruton's agarnrnaglobulinaemia tyrosine kinase), JAK3 (Janus kinase 3) protein tyrosine kinase, LCK (Lymphoid T-cell protein tyrosine kinase), and IGFR (Insulin-like growth factor receptor) protein tyrosine kinase.
IGFR (Insulin-like growth factor receptor) protein tyrosine kinase, sequence (P08069 31-1367): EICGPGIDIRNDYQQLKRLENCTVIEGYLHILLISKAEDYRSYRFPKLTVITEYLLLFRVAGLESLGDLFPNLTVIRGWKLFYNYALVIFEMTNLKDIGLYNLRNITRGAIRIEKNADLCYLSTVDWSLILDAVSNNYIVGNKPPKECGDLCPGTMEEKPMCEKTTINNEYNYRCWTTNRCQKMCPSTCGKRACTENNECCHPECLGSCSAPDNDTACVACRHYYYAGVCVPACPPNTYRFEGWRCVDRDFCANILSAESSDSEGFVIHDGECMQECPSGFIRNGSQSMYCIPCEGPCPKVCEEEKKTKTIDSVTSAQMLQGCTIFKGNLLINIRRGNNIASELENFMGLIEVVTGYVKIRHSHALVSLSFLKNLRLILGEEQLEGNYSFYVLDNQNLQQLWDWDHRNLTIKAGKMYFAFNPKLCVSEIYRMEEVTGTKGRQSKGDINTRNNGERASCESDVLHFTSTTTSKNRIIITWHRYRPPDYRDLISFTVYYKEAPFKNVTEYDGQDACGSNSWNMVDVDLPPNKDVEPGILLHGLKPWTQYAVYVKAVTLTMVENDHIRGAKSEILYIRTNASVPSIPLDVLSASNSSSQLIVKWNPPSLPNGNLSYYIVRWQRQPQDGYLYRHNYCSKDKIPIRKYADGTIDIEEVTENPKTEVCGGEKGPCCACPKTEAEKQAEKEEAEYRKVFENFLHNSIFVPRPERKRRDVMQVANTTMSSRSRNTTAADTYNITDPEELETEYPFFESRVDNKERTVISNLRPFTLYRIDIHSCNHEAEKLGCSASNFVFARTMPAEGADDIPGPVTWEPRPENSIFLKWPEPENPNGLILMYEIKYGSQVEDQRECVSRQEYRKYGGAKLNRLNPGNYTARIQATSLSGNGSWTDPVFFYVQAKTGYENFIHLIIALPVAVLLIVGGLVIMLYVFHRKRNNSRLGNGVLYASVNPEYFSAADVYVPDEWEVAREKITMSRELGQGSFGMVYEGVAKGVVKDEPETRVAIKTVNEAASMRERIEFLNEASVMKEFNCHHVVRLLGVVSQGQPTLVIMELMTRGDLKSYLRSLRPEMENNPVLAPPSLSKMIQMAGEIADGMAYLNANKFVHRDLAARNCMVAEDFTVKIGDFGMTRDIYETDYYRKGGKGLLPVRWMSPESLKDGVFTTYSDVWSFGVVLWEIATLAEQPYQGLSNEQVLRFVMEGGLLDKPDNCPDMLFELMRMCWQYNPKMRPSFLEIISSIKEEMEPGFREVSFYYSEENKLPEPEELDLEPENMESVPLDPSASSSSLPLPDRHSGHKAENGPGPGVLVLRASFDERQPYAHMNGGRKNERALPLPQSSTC
(§2) Maxisorb microtiter plates (Nalge Nunc International, Rochester, N.Y.) were coated with 1 mg/ml Poly(Glu,Tyr) 4:1 (Sigma, St. Louis, Mo.) solubilized in phosphate buffered saline (PBS), 0.02% sodium azide. On the day of the assay, microtiter plates were washed 4× with TBS-Tween (25 mM Tris pH 8.0, 150 mM NaCl, 0.05% Tween 20) using a Skatron plate washer (Skatron Instruments, Sterling, Va.). 200 μl of sterile blocking buffer (3% BSA in PBS, 0.02% sodium azide) was added to each well, and the microtiter plates were incubated at 37° C. for 1 hour. The blocking buffer was removed, the plates washed, and various concentrations of inhibitor were added in a 20 μl volume to the wells. 60 μl of the appropriate substrate mix was then added. Substrate mixes were prepared as described in Table 2:
(§3) Following addition of the substrate mix, 20 μl of the test protein tyrosine kinase (in 1× assay buffer) was added. Kinase reactions were incubated 30 min at 37° C., followed by washes in the Skatron plate washer. 100 μl of biotinylated PT-66 anti-phosphotyrosine monoclonal antibody (Sigma, St. Louis, Mo.) (diluted 1:4000 in 0.5% BSA, sterile-filtered TBS) was added to each well, and incubated for an additional 30 minutes at 37° C. […] The samples were then read at 450 nm in a plate reader.

Experiment [2] addresses BTK (Bruton's agarnrnaglobulinaemia tyrosine kinase) (Homo sapiens, UniProt Q06187). Kind of experiment: poly (Glu, Tyr) 4:1 ELISA, BTK. On the procedure:
as §1, §2, §3
(An ELISA detects its analyte on a solid surface through an enzyme-linked reagent.)

The target in experiment [3] is T1, JAK3 (Janus kinase 3) protein tyrosine kinase (Homo sapiens, UniProt P52333).
T1 sequence (P52333 1-1124): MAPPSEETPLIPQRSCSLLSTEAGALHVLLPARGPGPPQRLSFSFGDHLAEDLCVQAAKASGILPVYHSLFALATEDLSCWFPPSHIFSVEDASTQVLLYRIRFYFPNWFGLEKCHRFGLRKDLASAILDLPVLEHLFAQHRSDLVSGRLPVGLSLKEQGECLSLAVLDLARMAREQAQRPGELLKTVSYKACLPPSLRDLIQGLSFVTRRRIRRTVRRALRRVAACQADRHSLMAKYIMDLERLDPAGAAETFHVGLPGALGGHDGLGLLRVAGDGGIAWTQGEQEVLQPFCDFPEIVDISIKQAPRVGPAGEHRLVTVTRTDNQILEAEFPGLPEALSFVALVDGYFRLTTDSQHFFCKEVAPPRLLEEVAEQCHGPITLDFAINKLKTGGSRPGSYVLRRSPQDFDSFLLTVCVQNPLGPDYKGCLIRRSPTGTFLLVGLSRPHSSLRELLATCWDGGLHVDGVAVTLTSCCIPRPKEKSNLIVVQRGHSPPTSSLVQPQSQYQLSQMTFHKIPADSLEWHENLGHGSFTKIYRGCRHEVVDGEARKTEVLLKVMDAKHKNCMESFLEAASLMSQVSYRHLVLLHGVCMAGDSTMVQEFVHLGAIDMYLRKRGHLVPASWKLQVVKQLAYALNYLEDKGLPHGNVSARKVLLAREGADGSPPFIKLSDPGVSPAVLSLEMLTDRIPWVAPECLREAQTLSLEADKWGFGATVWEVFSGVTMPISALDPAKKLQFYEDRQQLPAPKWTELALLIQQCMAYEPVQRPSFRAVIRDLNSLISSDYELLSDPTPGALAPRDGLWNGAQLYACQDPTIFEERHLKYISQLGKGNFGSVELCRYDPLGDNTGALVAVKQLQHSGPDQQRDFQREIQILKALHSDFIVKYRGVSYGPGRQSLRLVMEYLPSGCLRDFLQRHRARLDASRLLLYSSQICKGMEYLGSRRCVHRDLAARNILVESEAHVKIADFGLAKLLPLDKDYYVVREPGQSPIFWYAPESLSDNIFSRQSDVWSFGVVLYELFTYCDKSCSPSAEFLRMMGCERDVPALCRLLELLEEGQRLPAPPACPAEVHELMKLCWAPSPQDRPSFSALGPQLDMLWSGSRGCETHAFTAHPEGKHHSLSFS
As to the kind of experiment: poly (Glu, Tyr) 4:1 ELISA, JAK3. To be noted: inhibitors solubilized in DMSO, read-out: ec-50 (effective concentration for 50% inhibition) of JAK3. The protocol: as §1, §2, §3

The mark [4] stands for this setting: ec-50 values ranging from hundreds of micromolar to no inhibition (data not shown).

BTK (Bruton's agarnrnaglobulinaemia tyrosine kinase), sequence (Q06187 whole entry, species assumed): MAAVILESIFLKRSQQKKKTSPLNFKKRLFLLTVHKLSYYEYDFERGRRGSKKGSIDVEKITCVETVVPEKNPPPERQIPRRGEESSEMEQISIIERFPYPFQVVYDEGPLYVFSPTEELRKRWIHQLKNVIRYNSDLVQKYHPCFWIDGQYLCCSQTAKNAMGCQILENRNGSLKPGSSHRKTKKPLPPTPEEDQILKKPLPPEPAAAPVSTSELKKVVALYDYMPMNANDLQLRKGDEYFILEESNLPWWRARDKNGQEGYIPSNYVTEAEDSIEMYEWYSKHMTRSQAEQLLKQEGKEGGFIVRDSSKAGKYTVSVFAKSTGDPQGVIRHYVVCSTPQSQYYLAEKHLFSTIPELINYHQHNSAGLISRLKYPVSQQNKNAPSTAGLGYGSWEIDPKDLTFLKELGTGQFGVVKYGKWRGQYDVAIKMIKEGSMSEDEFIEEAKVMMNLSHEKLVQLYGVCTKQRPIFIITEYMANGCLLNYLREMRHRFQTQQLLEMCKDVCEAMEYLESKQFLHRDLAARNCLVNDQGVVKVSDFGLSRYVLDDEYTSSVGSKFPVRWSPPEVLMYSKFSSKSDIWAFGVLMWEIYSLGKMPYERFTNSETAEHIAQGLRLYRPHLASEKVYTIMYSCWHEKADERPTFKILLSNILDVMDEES

As for `NC1=NC(=O)C(=C2CCNC(=O)c3[nH]ccc32)N1` [DBH, 4-(2-amino-4-oxo-2-imidazolin-5-ylidene)-4,5,6,7-tetrahydropyrrolo(2,3-c) azepine-8-one], the “Inhibition of IGFR” value in experiment [1] (setting [4]) is given as “weak”. Moreover, the “Inhibition of BTK” value in experiment [2] (setting [4]) was “weak”. For the same compound, in experiment [3], the EC50 lay in the range of 23.4 to 34.4 µM.
Turning to `NC1=NC(=O)C(=C2CCNC(=O)c3[nH]ccc32)N1` [DBH-2FB], the IC50 in experiment [1] (values for the four kinases range from 1971 μM to no inhibition, read-out: α-50 value for IGFR) was no less than 1970 µM; in experiment [2] (values for the four kinases range from 1971 μM to no inhibition, read-out: α-50 value for BTK) it was no less than 1970 µM. The EC50 in experiment [3] was found to be 11.6 µM.
